Data published in paper PMC11684029, “Discovery of VU6024578/BI02982816: An mGlu1 Positive Allosteric Modulator with Efficacy in Preclinical Antipsychotic and Cognition Models” (Journal of Medicinal Chemistry, 2024).

Key:
rat mGlu1 = rat mGlu1 (Rattus norvegicus, UniProt P23385); test: mGlu1 calcium mobilization PAM assay; format: cell-based
4-strain ± S9 = test: Ames test
[1] = predicted hepatic clearance; format: in vitro ADME, dog
From the text: (§1) Across species, 19d had acceptable fraction unbound in both plasma (fu (plasma): 0.03 (human), 0.041 (rat), 0.025 (cyno), 0.039 (dog) and 0.056 (mouse)) and brain (fu (brain): 0.034 (rat) and 0.081 (mouse)).

[2] = predicted hepatic clearance; format: in vitro ADME, cyno
From the text: as §1

3A4 = 3A4 (Homo sapiens, UniProt P08684); test: 3A4 mechanism-based inhibition; format: in vitro ADME
rat PO PBL study = format: in vivo; details: 3 mg/kg PO
From the text: Thus, 19d was a stable chemical entity in vivo. […] Overall, the rat PK and CNS penetration was supportive of in vivo work and progression down the development flow-chart.

[3] = brain exposure in rat AHL Cmax versus Ctrough study; format: in vivo
Method: Based on these positive behavioral data and the clear PK/PD relationship tied to achieving free brain levels at, or above, the mGlu1 PAM EC50, we next wanted to define the role of Cmax versus Ctrough drug (19d) concentrations in driving the PK/PD relationship. To accomplish this, pretreatment times and doses were calculated based upon previous PK (see Supporting Information Figure S3)[20] data to target free brain concentrations at and below the in vitro EC50 at the time of amphetamine challenge. Rats were pretreated with 3 mg/kg 19d or vehicle after habituation to the locomotor chambers are described in Figure 9A. Rats pretreated with 19d (10–60 mg/kg) or vehicle were administered compound prior to starting the amphetamine-induced hyperlocomotion experiment as depicted in Figure 9B-D. Ambulations were evaluated for 90 min post amphetamine treatment for all dosing groups. Pretreatment of 19d, chamber habituation, amphetamine treatment and ambulation recording times are outlined for each dosing group in Figure 9. Blood and brain samples were obtained at the end of testing (EOT) to determine 19d levels at the end of the study (Table 6).
The terminal free brain concentrations for this dosing group were 40 nM. […]

C57BL/6JRj mice = test: N1 sensory gating, MK-801 induced deficit; format: in vivo; details: mouse, 10 mg/kg s.c.
From the text: We have also employed here event-related potentials (ERPs) and auditory-evoked oscillations, which serve as critical translational biomarkers, to assess the impact of our investigational drug on sensory processing and cognitive functions, providing valuable data on its potential efficacy in treating disorders like schizophrenia. Detailed description of the methodology, setup specifications and recording procedure and analysis of the 40 Hz auditory steady-state response (ASSR) protocol can be found in Schuelert et al.[27] […] Reduced entrainment of gamma oscillation reflects abnormalities in basic sensory registration and processing but is also associated with impaired higher cognitive functions.[32] ASSR can also be reliably impaired preclinically by different NMDA receptor antagonists.[33],[34] […] Abnormalities associated with the filtering or “gating” of sensory information are among the most consistent findings in schizophrenia research.[35] […]
Mice were placed in a plexiglass cage in an attenuated sound box and allowed to adapt to their environment for 20 min before subcutaneous administration of VU6024578 0.8, 4, and 10 mg/kg or vehicle (20% HP-β-CD in water). […] An infrared sensor on the Neurologger recorded the infrared trigger signals and trigger signals were saved in an individual trigger channel. […]

Sequence of rat mGlu1 (P23385 19-1199): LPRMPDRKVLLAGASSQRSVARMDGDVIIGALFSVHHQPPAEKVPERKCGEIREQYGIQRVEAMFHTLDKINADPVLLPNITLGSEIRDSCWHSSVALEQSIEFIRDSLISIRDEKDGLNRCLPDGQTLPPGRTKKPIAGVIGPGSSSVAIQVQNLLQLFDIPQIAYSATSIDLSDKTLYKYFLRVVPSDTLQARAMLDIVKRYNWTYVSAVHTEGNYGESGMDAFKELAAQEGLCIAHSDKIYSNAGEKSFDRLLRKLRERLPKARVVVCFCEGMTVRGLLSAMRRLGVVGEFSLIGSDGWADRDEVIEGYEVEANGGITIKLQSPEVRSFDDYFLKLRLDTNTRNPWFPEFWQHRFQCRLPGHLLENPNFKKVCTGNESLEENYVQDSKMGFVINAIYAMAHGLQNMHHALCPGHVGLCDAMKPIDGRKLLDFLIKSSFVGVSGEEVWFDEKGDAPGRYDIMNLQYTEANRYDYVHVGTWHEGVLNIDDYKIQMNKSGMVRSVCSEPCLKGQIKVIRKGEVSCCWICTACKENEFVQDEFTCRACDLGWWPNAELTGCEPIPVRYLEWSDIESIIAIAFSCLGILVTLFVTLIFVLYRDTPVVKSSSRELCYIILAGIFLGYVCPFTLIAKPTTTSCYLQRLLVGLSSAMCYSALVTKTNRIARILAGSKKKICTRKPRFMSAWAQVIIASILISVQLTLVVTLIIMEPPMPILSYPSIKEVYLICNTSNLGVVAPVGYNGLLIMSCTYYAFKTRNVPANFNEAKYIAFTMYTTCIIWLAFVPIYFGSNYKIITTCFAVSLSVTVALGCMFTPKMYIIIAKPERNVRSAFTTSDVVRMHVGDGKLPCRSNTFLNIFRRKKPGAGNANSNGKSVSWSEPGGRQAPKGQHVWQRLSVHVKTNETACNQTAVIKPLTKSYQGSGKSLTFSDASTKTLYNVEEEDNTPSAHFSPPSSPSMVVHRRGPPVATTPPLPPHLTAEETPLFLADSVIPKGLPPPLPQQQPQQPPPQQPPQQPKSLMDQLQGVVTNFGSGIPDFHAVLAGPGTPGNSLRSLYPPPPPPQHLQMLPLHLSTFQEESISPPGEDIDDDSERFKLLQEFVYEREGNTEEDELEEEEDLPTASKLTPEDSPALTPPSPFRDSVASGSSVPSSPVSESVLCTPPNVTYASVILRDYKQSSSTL
Sequence of 3A4 (P08684 whole entry): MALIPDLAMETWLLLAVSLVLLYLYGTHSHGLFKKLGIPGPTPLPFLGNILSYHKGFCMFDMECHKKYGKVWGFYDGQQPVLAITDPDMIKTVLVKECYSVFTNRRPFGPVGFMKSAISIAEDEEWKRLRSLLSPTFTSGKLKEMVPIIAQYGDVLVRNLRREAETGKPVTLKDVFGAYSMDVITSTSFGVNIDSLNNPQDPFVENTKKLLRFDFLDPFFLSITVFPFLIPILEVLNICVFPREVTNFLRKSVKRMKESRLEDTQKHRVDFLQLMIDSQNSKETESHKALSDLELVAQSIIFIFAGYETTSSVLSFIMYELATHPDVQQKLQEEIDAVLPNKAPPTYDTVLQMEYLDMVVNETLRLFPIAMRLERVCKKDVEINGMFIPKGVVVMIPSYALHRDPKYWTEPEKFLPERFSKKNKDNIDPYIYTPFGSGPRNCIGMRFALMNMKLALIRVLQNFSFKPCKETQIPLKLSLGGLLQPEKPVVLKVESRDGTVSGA

In the case of Cn1nc(-c2ccnn2C)cc1CNC(=O)c1cc(-c2ccco2)ccc1Cl [Compound 19d, 2-Chloro-N-((1,2′-dimethyl-1H,2’H-[3,3′-bipyrazol]-5-yl)methyl)-5-(furan-2-yl)benzamide], the EC50 (rat mGlu1; PAM, calcium flux) is reported as 46 nM, the “rat mGlu1 Glumax” value (rat mGlu1; PAM, calcium flux) is reported as 124% and the “rat mGlu1 pEC50” value (rat mGlu1; n = 110) is reported as 7.39 ± 0.02. For the same compound, the Ames test result (4-strain ± S9) was “negative”, the “CLhep, dog” value [1] was 23 mL/min/kg and the “CLhep, cyno” value [2] was 31 mL/min/kg. The 3A4 mechanism-based inhibition (3A4) was “no 3A4 mechanism-based inhibition”, the “unbound brain concentration Br[unbound]” value (rat PO PBL study; at Tmax) was 100 nM and the Kp (rat PO PBL study; brain, 15 min to 7 h) was ~0.5. The “Cmax over rat in vitro potency” value ([3]; 60 mg/kg, at Tmax) was 6.8 fold, the concentration at 2.5 h ([3]; Sprague-Dawley, brain, oral, 3 mg/kg, pretreatment time 2.5 hr, read-out: Brain Unbound @EOT) was 40 nM and the concentration at 6.5 h ([3]; Sprague-Dawley, brain, oral, 10 mg/kg, pretreatment time 6.5 hr, read-out: Brain Unbound @EOT) was 44 nM. For the same compound, the concentration at 15 h ([3]; Sprague-Dawley, brain, oral, 60 mg/kg, pretreatment time 15 hr, read-out: Brain Unbound @EOT) was 3 nM, the concentration at 30 h ([3]; Sprague-Dawley, brain, oral, 60 mg/kg, pretreatment time 30 hr, read-out: Brain Unbound @EOT) was 6 nM and the “N1 sensory gating deficit induced by MK-801” value (C57BL/6JRj mice) was “reversed”.
